# Tests used:
# avena sativa (oats) = experiment: activity on agrarian species, soil treatment one day after sowing; assay type: in vivo, Avena sativa L.; details: in vivo
# From the text: (§1) The infesting species and the agrarian species have been indicated in Table 1 by letters, as follows:
# (§2) Method of evaluation of the results (of tests):
# (§3) 0 = no activity and no difference with respect to the control;
# (§4) 1 slight differences with respect to the control;
# (§5) 3 = considerable activity with damages that definitely impair the further development of most of the small plants; an activity degree already useful for practical purposes;
# (§6) 4 = maximum of activity with lack of germination or total containment of the small plants in the emerging stage.
# (§7) In the case of an intermediate activity between two classes of the scale, both values are recorded with the one which corresponds to the preeminent activity preceding.
# (§8) TABLE 2 reports the activity data of other compounds that fall within the class which is the object of this invention.
# (§9) TABLE 3 reports data on the herbicidal activity against infesting herbs, while TABLE 4 reports data concerning the activity on useful species of agricultural cultivations. These tables employ the criterion explained previously. The product was spread on the soil one day after sowing, in quantities of 1, 3, 6, 8, 10, 12 and 14 kg/ha.
# setaria glauca L. = experiment: herbicidal activity, soil treatment one day after sowing; assay type: in vivo
# From the text: as §1, §2, §4, §5, §6
# In the case of an intermediate activity between two classes of the scale, both values are recorded with the one which corresponds to the preeminent activity preceding. […]
# (§10) TABLE 3 reports data on the herbicidal activity against infesting herbs, while TABLE 4 reports data concerning the activity on useful species of agricultural cultivations. These tables employ the criterion explained previously. […]
# pisum sativum L. (pea) = experiment: activity on agrarian species, soil treatment one day after sowing; assay type: in vivo; details: in vivo
# From the text: as §1
# L = pisum sativum L. (pea)
# as §2, §3, §4, §5, §6, §7, §8, §10
# zea mais L. (corn) = experiment: as above; assay type: in vivo; details: in vivo
# From the text: as §1, §2, §3, §4, §5, §6, §7, §8, §9
# vicia sativa L. = experiment: herbicidal activity, soil treatment one day after sowing; assay type: in vivo
# From the text: as §1, §2, §4, §5, §6, §7, §8
# [1] = tested on: amaranthus retroflexus L.; experiment: as above; assay type: in vivo
# From the text: as §1
# A = amaranthus retroflexus L.
# as §2, §4, §5, §6, §7, §8, §10
# chenopodium album L. = experiment: as above; assay type: in vivo
# From the text: as §1, §2, §4, §5, §6, §7, §8, §10
# oryza sativa L. (rice) = experiment: activity on agrarian species, soil treatment one day after sowing; assay type: in vivo; details: in vivo
# From the text: as §1
# P = oryza sativa L. (rice)
# as §2, §3, §4, §5, §6, §7, §8, §9
# artemisia vulgaris L. = experiment: herbicidal activity, soil treatment one day after sowing; assay type: in vivo
# From the text: as §1
# B = artemisia vulgaris L.
# as §2, §4, §5, §6, §7, §8, §10
# [2] = tested on: phaseolus vulgaris (bean); experiment: activity on agrarian species, soil treatment one day after sowing; assay type: in vivo, Phaseolus vulgaris L.; details: in vivo
# From the text: as §1
# I = phaseolus vulgaris (bean)
# as §2, §3, §4, §5, §6, §7, §8, §9
# [3] = tested on: echinocloa crus-galli R.S.; experiment: herbicidal activity, soil treatment one day after sowing; assay type: in vivo
# From the text: as §1
# D = echinocloa crus-galli R.S.
# as §2, §4, §5, §6, §7, §8, §10
Compound,"activity on E, 0-4 scale (setaria glauca L.; 6 kg/ha)","activity on F, 0-4 scale (vicia sativa L.; 6 kg/ha)","activity on A, 0-4 scale ([1]; 6 kg/ha)","activity on C, 0-4 scale (chenopodium album L.; 6 kg/ha)","activity on B, 0-4 scale (artemisia vulgaris L.; 6 kg/ha)","activity on D, 0-4 scale ([3]; 4 kg/ha)","activity on D, 0-4 scale ([3]; 6 kg/ha)",also measured
"CCC(C)N(C(=O)c1cccc(C)c1)C(C)CC (centres unmarked) [PA226, 3-methyl-N,N-di-sec.butyl-benzamide]",4,0,2,1-2,1-2,3,4,"activity on G, 0-4 scale (avena sativa (oats)): 0; activity on E, 0-4 scale (setaria glauca L.; 2 kg/ha): 2; activity on E, 0-4 scale (setaria glauca L.; 4 kg/ha): 3-4; activity on L, 0-4 scale (pisum sativum L. (pea)): 0; activity on O, 0-4 scale (zea mais L. (corn)): 0; activity on F, 0-4 scale (vicia sativa L.; 2 kg/ha): 0; activity on F, 0-4 scale (vicia sativa L.; 4 kg/ha): 0; activity on A, 0-4 scale ([1]; 4 kg/ha): 1-2; activity on C, 0-4 scale (chenopodium album L.; 2 kg/ha): 0-1; activity on C, 0-4 scale (chenopodium album L.; 4 kg/ha): 1; activity on P, 0-4 scale (oryza sativa L. (rice)): 0; activity on B, 0-4 scale (artemisia vulgaris L.; 2 kg/ha): 1; activity on B, 0-4 scale (artemisia vulgaris L.; 4 kg/ha): 1-2; activity on I, 0-4 scale [2]: 0; activity on D, 0-4 scale ([3]; 2 kg/ha): 2-3"
"CCC(C)N(C(=O)c1ccc(Cl)cc1Cl)C(C)CC (centres unmarked) [PA214, 2,4-dichloro-N,N-di-sec.butyl-benzamide]",4,0,3-4,,,3-4,4,"activity on G, 0-4 scale (avena sativa (oats)): 0; activity on E, 0-4 scale (setaria glauca L.; 2 kg/ha): 3; activity on E, 0-4 scale (setaria glauca L.; 4 kg/ha): 3-4; activity on L, 0-4 scale (pisum sativum L. (pea)): 0; activity on O, 0-4 scale (zea mais L. (corn)): 0; activity on F, 0-4 scale (vicia sativa L.; 2 kg/ha): 0; activity on F, 0-4 scale (vicia sativa L.; 4 kg/ha): 0; activity on A, 0-4 scale ([1]; 2 kg/ha): 1; activity on A, 0-4 scale ([1]; 4 kg/ha): 2-3; activity on C, 0-4 scale (chenopodium album L.; 2 kg/ha): 1; activity on C, 0-4 scale (chenopodium album L.; 4 kg/ha): 1-2; activity on P, 0-4 scale (oryza sativa L. (rice)): 0; activity on B, 0-4 scale (artemisia vulgaris L.; 2 kg/ha): 1; activity on B, 0-4 scale (artemisia vulgaris L.; 4 kg/ha): 2; activity on I, 0-4 scale [2]: 0"
"CCCCN(CC)C(=O)c1ccc(Cl)c(Cl)c1 [PA325, 3,4-dichloro-N-ethyl,N-n.butyl-benzamide, reference compound]",0-1,0,3,2,2,,0-1,
"C=CCN(CC=C)C(=O)c1cccc(Br)c1 [PA499, 3-bromo-N,N-di-allyl-benzamide, reference compound]",3,3,,3,3,1,3,"activity on E, 0-4 scale (setaria glauca L.; 4 kg/ha): 2; activity on F, 0-4 scale (vicia sativa L.; 4 kg/ha): 1; activity on A, 0-4 scale ([1]; 4 kg/ha): 2-3; activity on C, 0-4 scale (chenopodium album L.; 4 kg/ha): 2; activity on B, 0-4 scale (artemisia vulgaris L.; 4 kg/ha): 3"
"O=C(O)c1cc(Cl)cc(Cl)c1Cl [PA304, 2,3,5-trichloro-benzoic acid, reference compound]",0,3,1,0,1,,0,
"Cc1cccc(C(=O)O)c1 [PA442, 3,methyl-benzoic acid, reference compound]",0,0,1,0,0,,0,
"CCCC(C)N(C(=O)c1ccc(Cl)c(Cl)c1)C(C)CC (centres unmarked) [PA634, 3,4-dichloro-N-sec.amyl,N-sec.butyl-benzamide]",3-4,0,2,1-2,2,,3,
"CC(C)CN(CC(C)C)C(=O)c1cccc(Br)c1 [PA521, 3-bromo-N,N-di-isobutyl-benzamide, reference compound]",1-2,0,1,1,1,,1-2,
"CCCN(CCC)C(=O)c1ccc(Cl)cc1Cl [PA200, 2,4-dichloro-N,N-di-n-propyl-benzamide, reference compound]",1,0-1,3,2-3,2-3,,2,
"CCC(C)N(C(=O)c1ccc(Br)c(I)c1)C(C)CC (centres unmarked) [PA619, 3-iodo,4-bromo-N,N-di-sec.butyl-benzamide]",3,0,0-1,0-1,0,,3,
"CCCCN(CCCC)C(=O)c1cc(Cl)cc(Cl)c1 [PA294, 3,5-dichloro-N,N-di-n.butyl-benzamide, reference compound]",3,0,0-1,1,0-1,,2,
"CCC(C)N(C(=O)c1ccc(Br)c(Br)c1)C(C)CC (centres unmarked) [PA484, 3,4-dibromo-N,N-di-sec.butyl-benzamide]",4-3,0,2-3,2,2-3,3,3-4,"activity on E, 0-4 scale (setaria glauca L.; 4 kg/ha): 3; activity on F, 0-4 scale (vicia sativa L.; 4 kg/ha): 0; activity on A, 0-4 scale ([1]; 4 kg/ha): 1-2; activity on C, 0-4 scale (chenopodium album L.; 4 kg/ha): 1; activity on B, 0-4 scale (artemisia vulgaris L.; 4 kg/ha): 1"
"CCC(C)N(C(=O)c1cccc(Cl)c1)C(C)CC (centres unmarked) [PA215, 3-chloro-N,N-di-sec.butyl-benzamide]",3,1-2,1-2,1-2,1-2,,3,"activity on G, 0-4 scale (avena sativa (oats)): 0; activity on O, 0-4 scale (zea mais L. (corn)): 0; activity on P, 0-4 scale (oryza sativa L. (rice)): 0; activity on I, 0-4 scale [2]: 0"
"CCCCN(CCCC)C(=O)c1ccc(Cl)c(Cl)c1 [PA105, 3,4-dichloro-N,N-di-n.butyl-benzamide, reference compound]",2,0-1,1-2,1,1-2,,1,"activity on E, 0-4 scale (setaria glauca L.; 3 kg/ha): 1; activity on F, 0-4 scale (vicia sativa L.; 3 kg/ha): 0; activity on C, 0-4 scale (chenopodium album L.; 3 kg/ha): 0-1; activity on B, 0-4 scale (artemisia vulgaris L.; 3 kg/ha): 0-1; activity on D, 0-4 scale ([3]; 3 kg/ha): 0-1"
"CCC(C)N(C(=O)c1ccc(C)c(C)c1)C(C)CC (centres unmarked) [PA233, 3,4-dimethyl-N,N-di-sec.butyl-benzamide]",4,0,2-3,2,2,3,4,"activity on G, 0-4 scale (avena sativa (oats)): 0; activity on E, 0-4 scale (setaria glauca L.; 2 kg/ha): 3; activity on E, 0-4 scale (setaria glauca L.; 4 kg/ha): 3-4; activity on L, 0-4 scale (pisum sativum L. (pea)): 0; activity on O, 0-4 scale (zea mais L. (corn)): 0; activity on I, 0-4 scale [2]: 0; activity on D, 0-4 scale ([3]; 2 kg/ha): 2-3"
"CCN(CC)C(=O)c1cccc(C)c1 [PA383, 3,methyl-N,N-diethyl-benzamide, reference compound]",0-1,2,2,2,3,,0-1,
"O=C(O)c1cccc(Cl)c1 [PA439, 3,chloro-benzoic acid, reference compound]",0,0,0,0,0,,0,
"CCCN(CCC)C(=O)c1cc(Cl)cc(Cl)c1Cl [PA303, 2,3,5-trichloro-N,N-di-n. propyl-benzamide, reference compound]",4,0-1,3,,1,3-4,4,"activity on E, 0-4 scale (setaria glauca L.; 1 kg/ha): 1-2; activity on E, 0-4 scale (setaria glauca L.; 2 kg/ha): 3; activity on L, 0-4 scale (pisum sativum L. (pea)): 1; activity on F, 0-4 scale (vicia sativa L.; 1 kg/ha): 0; activity on F, 0-4 scale (vicia sativa L.; 2 kg/ha): 0; activity on F, 0-4 scale (vicia sativa L.; 4 kg/ha): 0-1; activity on A, 0-4 scale ([1]; 1 kg/ha): 1; activity on A, 0-4 scale ([1]; 4 kg/ha): 2-3; activity on C, 0-4 scale (chenopodium album L.; 1 kg/ha): 1; activity on C, 0-4 scale (chenopodium album L.; 2 kg/ha): 1; activity on C, 0-4 scale (chenopodium album L.; 4 kg/ha): 1-2; activity on P, 0-4 scale (oryza sativa L. (rice)): 3; activity on B, 0-4 scale (artemisia vulgaris L.; 1 kg/ha): 1; activity on B, 0-4 scale (artemisia vulgaris L.; 2 kg/ha): 1; activity on B, 0-4 scale (artemisia vulgaris L.; 4 kg/ha): 1; activity on D, 0-4 scale ([3]; 1 kg/ha): 1-2"
